Read-outs that look alike come from different tables or passages of the source.
What was measured:
[1] = test system: NCI-H2052 cells; test: Tumor cell proliferation inhibition experiment (Cell Titer Glo), NCI-H2052; assay type: cell-based; settings: NCI-H2052 lung cancer cells, three days incubation
Method: (§1) Cell Titer Glo luminescent cell viability assay kit was used to quantify the ATP content in cells, so as to quantify the number of viable cells. […] On the second day, the compound was added to the 96-well plate after a three-fold serial dilution to eight concentrations, and incubated at 37° C. for three days in the 5% carbon dioxide incubator. The culture medium was treated with the addition of Cell Titer Glo luminescent cell viability assay kit (Promega G7570) reagent, incubated for 10 minutes, and then placed in Envision (Pelkin Elmer) to read the luminescence signal. DMSO was used instead of the compound as a control to calculate the inhibition rate (inhibition rate %=(1−compound signal/DMSO signal)*100), and then standard four parameter curve fitting was used to calculate the inhibitory activity IC50.

[2] = test system: MSTO-211H cells; test: Tumor cell proliferation inhibition experiment (Cell Titer Glo), MSTO-211H; assay type: cell-based; settings: MSTO-211H lung cancer cells, three days incubation
Method: as §1

[3] = Pharmacokinetic evaluation experiment in mice (IV and PO); assay type: in vivo; settings: mouse, plasma, male ICR mice; for AUC: read-out: AUC
Method: 120 healthy adult male ICR mice were selected and divided into 20 groups according to the principle of similar body weight, with 6 mice in each group of IV (10 groups) and 6 mice in each group of PO (10 groups). An appropriate amount of sample was weighed, sequentially added with an appropriate amount of DMA, Solutol, and Saline according to the volume ratio of 10:10:80, and stirred and sonicated to achieve a clarification of 1 mg/mL. After overnight fasting, mice in the IV group were intravenously administered with a volume of 5 mL/kg and a dose of 5 mg/kg, respectively; and mice in the PO group were intragastrically administered with a volume of 30 mL/kg and a dose of 30 mg/kg, respectively. Interleaved sampling was performed on every 6 mice after administration of the test compound. In the IV group, approximately 30 μL of blood was collected at 0.0833, 0.25, 0.5, 1, 2, 4, 6, 8, and 24 hours, and placed in a commercial anticoagulant tube pre-filled with EDTA-K2. In the PO group, approximately 30 μL of blood was collected at 0.25, 0.5, 1, 2, 4, 6, 8, and 24 hours, and placed in the commercial anticoagulant tube pre-filled with EDTA-K2. The tubes were centrifuged for 15 minutes to separate the plasma, and the plasma was stored at −80° C. Animals were allowed to eat 2 hours after administration. The content of the test compound in the plasma of mice after intravenous and intragastric administration was determined by LC/MS/MS method. The linear range of the method was 1.00 to 1000 ng/mL: plasma samples were analyzed after protein precipitation.

Row | SMILES | IC50 ([1]; Homo sapiens, 72 h) | IC50 ([2]; Homo sapiens, 72 h) | further results
1 | CNC(=O)c1cc2c(c(F)c1-c1c(Cl)c(F)cc3c1C[C@@](CN[C@H]1CC[C@](C)(O)CC1)(c1ccccc1)O3)[C@@H]1C[C@@H]1O2 (single isomer, unassigned) [Compound 14a2] | 590 nM | 390 nM | –
2 | CNC(=O)c1cc2c(c(F)c1-c1c(Cl)c(F)cc3c1C[C@](c1ccccc1)([C@@H]1CCCN1)O3)CC1(CC1)C2 [Compound 1a] | 4750 nM | 2190 nM | –
3 | CNC(=O)c1cc2c(c(F)c1-c1c(Cl)c(F)cc3c1C[C@](c1ccccc1)([C@@H]1CCCN1)O3)C1CC1O2 (stereo partly drawn) [Compound 2a] | 928 nM | 414 nM | bioavailability ([3]; PO 30 mg/kg vs IV 5 mg/kg): 95.4%; clearance ([3]; IV 5 mg/kg): 86.3 mL/min/kg; half-life ([3]; IV 5 mg/kg): 3.82 h; AUC ([3]; IV 5 mg/kg): 750 ng·h/mL; Vd ([3]; IV 5 mg/kg, read-out: Vss): 28 L/kg; AUC ([3]; PO 30 mg/kg): 4300 ng·h/mL; Cmax ([3]; PO 30 mg/kg, read-out: Cmax): 474 ng/mL; Tmax ([3]; PO 30 mg/kg, read-out: Tmax): 4 h
4 | CNC(=O)c1cc2c(c(F)c1-c1c(Cl)c(F)cc3c1C[C@](c1ccccc1)([C@@H]1CCCN1)O3)N1CCCC1CO2 (stereo partly drawn) [Compound 3a] | 1870 nM | 976 nM | –
5 | CNC(=O)c1cc2c(c(F)c1-c1c(Cl)c(F)cc3c1C[C@](c1ccccc1)([C@@H]1CCCN1)O3)N1C[C@H](O)CC1CO2 (stereo partly drawn) [Compound 4a] | 8370 nM | > 10000 nM | –
6 | CNC(=O)c1cc2c(c(F)c1-c1c(Cl)c(F)cc3c1C[C@](c1ccccc1)([C@@H]1CCCN1)O3)N1C[C@@H](F)CC1CO2 (stereo partly drawn) [Compound 5a] | 3140 nM | 1940 nM | –
7 | CNC(=O)c1cnc(OCCO)c(O)c1-c1c(Cl)c(F)cc2c1C[C@](c1ccccc1)([C@@H]1CCCN1)O2 [Compound 6a] | > 10000 nM | > 10000 nM | –
8 | CNC(=O)c1cnc(OCCO)c(OC)c1-c1c(Cl)c(F)cc2c1C[C@](c1ccccc1)([C@@H]1CCCN1)O2 [Compound 7a] | 9080 nM | 9800 nM | –
9 | CNC(=O)c1cnc(OCCO)c(N)c1-c1c(Cl)c(F)cc2c1C[C@](c1ccccc1)([C@@H]1CCCN1)O2 [Compound 8a] | > 10000 nM | > 10000 nM | –
10 | C#Cc1c(OCCO)ncc(C(=O)NC)c1-c1c(Cl)c(F)cc2c1C[C@](c1ccccc1)([C@@H]1CCCN1)O2 [Compound 9a] | 7970 nM | > 10000 nM | –
11 | CNC(=O)c1cnc(OCCO)c(F)c1-c1c(Cl)c(F)cc2c1C[C@](c1ccccc1)(c1ccn[nH]1)O2 [Compound 11a] | > 10000 nM | > 10000 nM | –
12 | CNC(=O)c1cnc(OCCO)c(F)c1-c1c(C#N)c(F)cc2c1C[C@](c1ccccc1)([C@@H]1CCCN1)O2 [Compound 12a] | > 10000 nM | > 10000 nM | –
13 | CNC(=O)c1cc2c(c(F)c1-c1c(Cl)c(F)cc3c1C[C@@](CN[C@H]1CC[C@](C)(O)CC1)(c1ccccc1)O3)[C@H]1C[C@H]1O2 [Compound 14a1] | 290 nM | 220 nM | –
14 | CNC(=O)c1cc2c(c(F)c1-c1c(Cl)c(F)cc3c1C[C@](c1ccccc1)([C@@H]1CC4(CC4)CN1)O3)N1CCCC1CO2 (stereo partly drawn) [Compound 15a] | 2730 nM | 2880 nM | –
15 | CNC(=O)c1cnc(OCCO)c(F)c1-c1c(Cl)c(F)cc2c1C[C@](c1ccccc1)([C@@H]1CCC(=O)N1)O2 [Compound 19a] | > 10000 nM | > 10000 nM | –
16 | CNC(=O)c1cc2c(c(F)c1-c1c(Cl)c(F)cc3c1C[C@](c1ccccc1)([C@@H]1CCC(=O)N1)O3)C1CC1O2 (stereo partly drawn) [Compound 20a] | > 10000 nM | > 10000 nM | –
17 | CNC(=O)c1cc2c(c(F)c1-c1c(Cl)c(F)cc3c1C[C@@](CN[C@H]1CC[C@](C)(O)CC1)(c1ccccc1)O3)OC1CC21 (stereo partly drawn) [Compound 22a] | 90 nM | 50 nM | –
18 | C[C@]1(O)CC[C@H](NC[C@@]2(c3ccccc3)Cc3c(cc(F)c(Cl)c3-c3c(C(N)=O)cc4c(c3F)C3CC3O4)O2)CC1 (stereo partly drawn) [Compound 23a] | 200 nM | 110 nM | –

Row | SMILES | IC50 ([1]; Homo sapiens, 72 h) | IC50 ([2]; Homo sapiens, 72 h) | further results
19 | C[C@]1(O)CC[C@H](NC[C@@]2(c3ccccc3)Cc3c(cc(F)c(Cl)c3-c3c(C(N)=O)cc4c(c3F)OC3CC43)O2)CC1 (stereo partly drawn) [Compound 24a] | 40 nM | 20 nM | –
20 | CNC(=O)c1cc2c(c(F)c1-c1c(Cl)c(F)cc3c1[C@H](C)[C@@](CN[C@H]1CC[C@](C)(O)CC1)(c1ccccc1)O3)C1CC1O2 (stereo partly drawn) [Compound 25a] | 260 nM | 150 nM | –
21 | CNC(=O)c1cc2c(c(F)c1-c1c(Cl)c(F)cc3c1[C@H](C)[C@@](CN[C@H]1CC[C@](C)(O)CC1)(c1ccccc1)O3)OC1CC21 (stereo partly drawn) [Compound 26a] | 40 nM | 30 nM | –
22 | C[C@H]1c2c(cc(F)c(Cl)c2-c2c(C(N)=O)cc3c(c2F)C2CC2O3)O[C@]1(CN[C@H]1CC[C@](C)(O)CC1)c1ccccc1 (stereo partly drawn) [Compound 27a] | 210 nM | 100 nM | –
23 | C[C@H]1c2c(cc(F)c(Cl)c2-c2c(C(N)=O)cc3c(c2F)OC2CC32)O[C@]1(CN[C@H]1CC[C@](C)(O)CC1)c1ccccc1 (stereo partly drawn) [Compound 28a] | 50 nM | 40 nM | –
24 | CNC(=O)c1cc2c(c(F)c1-c1c(Cl)c(F)cc3c1C[C@@](CN[C@H]1CC[C@](C)(O)CC1)(c1ccccc1)O3)CCC2 [Compound 30a] | 550 nM | 300 nM | –
25 | CNC(=O)c1cc2c(c(F)c1-c1c(Cl)c(F)cc3c1C[C@](c1ccccc1)([C@@H]1CCCN1)O3)CCC2(F)F [Compound 36a] | 650 nM | 450 nM | –
26 | CNC(=O)c1cc2c(c(F)c1-c1c(Cl)c(F)cc3c1C[C@](c1ccccc1)([C@@H]1CCCN1)O3)CCC2C#N (stereo partly drawn) [Compound 38a] | 750 nM | 990 nM | –
27 | CNC(=O)c1cc2c(c(F)c1-c1c(Cl)c(F)cc3c1C[C@](c1ccccc1)([C@@H]1CCCN1)O3)CCC2=O [Compound 40a] | 600 nM | 490 nM | –
28 | CNC(=O)c1cc2c(c(F)c1-c1c(Cl)c(F)cc3c1C[C@@](CN[C@H]1CC[C@](C)(O)CC1)(c1ccccc1)O3)CCC2O (stereo partly drawn) [Compound 42a] | 900 nM | 730 nM | –
29 | CNC(=O)c1cc2c(c(F)c1-c1c(Cl)c(F)cc3c1C[C@](c1ccccc1)([C@@H]1CCCN1)O3)CCC2F (stereo partly drawn) [Compound 43a] | 500 nM | 440 nM | –
30 | CNC(=O)c1cc2c(c(F)c1-c1c(Cl)c(F)cc3c1C[C@](c1ccccc1)([C@@H]1CCCN1)O3)CCC2S(C)(=O)=O (stereo partly drawn) [Compound 46a] | 930 nM | 640 nM | –
31 | CNC(=O)c1cc2c(c(F)c1-c1c(Cl)c(F)cc3c1C[C@](c1ccccc1)([C@@H]1CCCN1)O3)CC(O)C2 (stereo partly drawn) [Compound 49a] | 240 nM | 150 nM | –
32 | NC(=O)c1cc2c(c(F)c1-c1c(Cl)c(F)cc3c1C[C@](c1ccccc1)([C@@H]1CCCN1)O3)CCC2 [Compound 52a] | 200 nM | 170 nM | –
33 | CNC(=O)c1cc2c(c(F)c1-c1c(Cl)c(F)cc3c1C[C@](c1ccccc1)([C@@H]1CCCN1)O3)C[C@H](O)[C@H]2C [Compound 57a1] | – | – | IC50 [1]: 450 nM; IC50 [2]: 390 nM
34 | CNC(=O)c1cc2c(c(F)c1-c1c(Cl)c(F)cc3c1C[C@](c1ccccc1)([C@@H]1CCCN1)O3)CC(=O)C2 [Compound 65a] | > 10000 nM | > 10000 nM | –
35 | CNC(=O)c1cc2c(c(F)c1-c1c(Cl)c(F)cc3c1C[C@@](CN[C@H]1CC[C@](C)(O)CC1)(c1ccccc1)O3)CC(O)C2 (stereo partly drawn) [Compound 80a] | 580 nM | 490 nM | –
